Tested on: bioluminescent sensor strain Escherichia coli MT102 (pSB403)
Assay: Biosensor assay: quorum sensing inhibition, bioluminescence of the sensor strain
Format: cell-based
Conditions: 3oxo-C6-HSL 100 nM, bioluminescence after 4 hours at 30° C.
Protocol: Quorum sensing inhibition of the compounds was investigated with the aid of the bioluminescent sensor strain Escherichia coli MT102 (pSB403) (Winson et al., FEMS Microbiol. Lett. 163:185-92, 1998). Plasmid pSB403 contains the Photobacterium fischeri luxR gene together with the […] promoter region as a transcriptional fusion to the bioluminescence genes luxCDABE of Photorhabdus luminescence.
Inhibitory studies were conducted in a microtitre dish assay as follows: the E. coli sensor strain grown over night in LB medium (Sambrook et al., Molecular Cloning: A Laboratory Manual. 2nd Edn. Cold Spring Harbor Laboratory, New York, 1989) was diluted 1:4 and grown for another 1 hour at 30° C. After addition of 3oxo-C6-HSL (final concentration 100 nM) 100 μl of an exponential culture suspension were filled in the wells of a FluoroNunc Polysorp microtitre dish. The test compounds were added to the culture in different concentrations and bioluminescence was measured after 4 hours of incubation at 30° C. with a Lamda Fluoro 320 Plus reader (Bio-Tek Instruments). Inhibitor-mediated reduction of light emission was correlated with the value obtained without addition of the test compounds. IC50 values (concentration of inhibitor required for 50% inhibition of the signal compared to the signal without inhibitor) were determined by using a fitting function after drawing a graph of the activities of eight different inhibitor concentrations.

| Compound | IC50 (Escherichia coli, 4 h) [µM] | IC50 [µM] |
| --- | --- | --- |
| O=C(NNC(=O)c1cccs1)c1ccsc1 [Compound 47, Thiophene-3-carboxylic acid N′-(thiophene-2-carbonyl)-hydrazide] | 1 to 50 | – |
| O=C(NNC(=O)c1sccc1Br)c1ccc(Cl)s1 [Compound 48] | 50 to 100 | – |
| O=C(NNC(=O)c1sccc1Cl)c1sccc1Cl [Compound 49, 3-Chloro-thiophene-2-carboxylic acid N′-(3-chloro-thiophene-2-carbonyl)-hydrazide] | 50 to 100 | – |
| COc1c(C(=O)NNC(=O)c2cccs2)csc1Cl [Compound 50, 5-Chloro-4-methoxy-thiophene-3-carboxylic acid N′-(thiophene-2-carbonyl)-hydrazide] | 50 to 100 | – |
| O=C(NNC(=O)c1sccc1Cl)c1cccs1 [Compound 51, 3-Chloro-thiophene-2-carboxylic acid N′-(thiophene-2-carbonyl)-hydrazide] | 50 to 100 | – |
| O=C(NNC(=O)c1ccc(Cl)s1)c1cccs1 [Compound 52, Thiophene-2-carboxylic acid N′-(5-chloro-thiophene-2-carbonyl)-hydrazide] | 50 to 100 | – |
| COc1c(C(=O)NNC(=O)c2ccc(C)s2)csc1Br [Compound 53, 5-Bromo-4-methoxy-thiophene-3-carboxylic acid N′-(5-methyl-thiophene-2-carbonyl)-hydrazide] | 1 to 50 | – |
| Cc1ccc(C(=O)NNC(=O)c2cccs2)s1 [Compound 54, Thiophene-2-carboxylic acid N′-(5-methyl-thiophene-2-carbonyl)-hydrazide] | 1 to 50 | – |
| O=C(NNC(=O)c1sccc1Br)c1cccs1 [Compound 55, Thiophene-2-carboxylic acid N′-(3-bromo-thiophene-2-carbonyl)-hydrazide] | 1 to 50 | – |
| CCOc1ccsc1C(=O)NNC(=O)c1sccc1Br [Compound 56, 3-Bromo-thiophene-2-carboxylic acid N′-(3-ethoxy-thiophene-2-carbonyl)-hydrazide] | 1 to 50 | – |
| Cc1ccc(C(=O)NNC(=O)c2sccc2Br)s1 [Compound 57, 3-Bromo-thiophene-2-carboxylic acid N′-(5-methyl-thiophene-2-carbonyl)-hydrazide] | 1 to 50 | – |
| O=C(NNC(=O)c1sccc1Cl)c1ccc(Cl)s1 [Compound 58, 3-Chloro-thiophene-2-carboxylic acid N′-(5-chloro-thiophene-2-carbonyl)-hydrazide] | 50 to 100 | – |
| O=C(NNC(=O)c1ccc(Br)s1)c1cccs1 [Compound 59, Thiophene-2-carboxylic acid N′-(5-bromo-thiophene-2-carbonyl)-hydrazide] | 1 to 50 | – |
| O=C(NNC(=O)c1sc2ccccc2c1Cl)c1cccs1 [Compound 60, 3-Chloro-benzo[b]thiophene-2-carboxylic acid N′-(thiophene-2-carbonyl)-hydrazide] | 1 to 50 | – |
| O=C(NNC(=O)c1sc2ccccc2c1Cl)c1sccc1Br [Compound 61, 3-Chloro-benzo[b]thiophene-2-carboxylic acid N′-(3-bromo-thiophene-2-carbonyl)-hydrazide] | 50 to 100 | – |
| O=C(NNC(=O)c1sc2ccccc2c1Cl)c1ccc(Br)s1 [Compound 62, 3-Chloro-benzo[b]thiophene-2-carboxylic acid N′-(5-bromo-thiophene-2-carbonyl)-hydrazide] | 50 to 100 | – |
| Cc1nn(C)c2ncc(C(=O)NNC(=O)c3cccs3)c(Cl)c12 [Compound 63] | > 100 | – |
| Cc1cc(C(=O)NNC(=O)c2sc3ccccc3c2Cl)n(C)n1 [Compound 64, 2,5-Dimethyl-2H-pyrazole-3-carboxylic acid N′-(3-chloro-benzo[b]thiophene-2-carbonyl)-hydrazide] | > 100 | – |
| Cc1cc(C(=O)NNC(=O)c2cccs2)n(C)n1 [Compound 66, 2,5-Dimethyl-2H-pyrazole-3-carboxylic acid N′-(thiophene-2-carbonyl)-hydrazide] | > 100 | – |
| CCn1nc(C)c(Br)c1C(=O)NNC(=O)c1ccc(Cl)s1 [Compound 67, 4-Bromo-2ethyl-5-methyl-2H-pyrazole-3-carboxylic acid N′-(5-chloro-thiophene-2-carbonyl)-hydrazide] | – | > 100 |
| Cc1cc(C(=O)NNC(=O)c2cccs2)n(C(C)(C)C)n1 [Compound 68, Thiophene-2-carboxylic acid N′-(2-tert-butyl-5-methyl-2H-pyrazole-3-carbonyl)-hydrazide] | > 100 | – |
| Cn1nc(C(C)(C)C)cc1C(=O)NNC(=O)c1ccc(Cl)s1 [Compound 69, 5-tert-Butyl-2-methyl-2H-pyrazole-3-carboxylic acid N′-(5-chloro-thiophene-2-carbonyl)-hydrazide] | 1 to 50 | – |
| Cn1nc(C(C)(C)C)cc1C(=O)NNC(=O)c1cccs1 [Compound 70, Thiophene-2-carboxylic acid N′-(5-tert-butyl-2-methyl-2H-pyrazole-3-carbonyl)-hydrazide] | > 100 | – |

| Compound | IC50 (Escherichia coli, 4 h) [µM] | IC50 [µM] |
| --- | --- | --- |
| CCn1nc(C)c(Br)c1C(=O)NNC(=O)c1ccc(Br)s1 [Compound 71, 4Bromo-2-ethyl-5-methyl-2H-pyrazole-3-carboxylic acid N′-(5-bromo-thiophene-2-carbonyl)-hydrazide] | 1 to 50 | – |
| CCn1nc(C)c(Br)c1C(=O)NNC(=O)c1scc(C)c1Cl [Compound 72, 4-Bromo-2-ethyl-5-methyl-2H-pyrazole-3-carboxylic acid N′-(3-chloro-4-methylthiophene-2-carbonyl)-hydrazide] | > 100 | – |
| CCn1nc(C)c(Br)c1C(=O)NNC(=O)c1ccc(Cl)s1 [Compound 73, 4-Bromo-2-ethyl-5-methyl-2H-pyrazole-3-carboxylic acid N′-(5-chloro-thiophene-2-carbonyl)-hydrazide] | – | 1 to 50 |
| CCn1nc(C)c(Br)c1C(=O)NNC(=O)c1cc(Br)c(Br)s1 [Compound 74, 4-Bromo-2-ethyl-5-methyl-2H-pyrazole-3-carboxylic acid N′-(4,5-di-bromo-thiophene-2-carbonyl)-hydrazide] | > 100 | – |
| CCCC(=O)NNC(=O)c1cccs1 [Compound 75, Thiophene-2-carboxylic acid N′-butyryl-hydrazide] | 1 to 50 | – |
| CCCC(=O)NNC(=O)c1ccc(C)s1 [Compound 76, 5-Methyl-thiophene-2-carboxylic acid N′-butyryl-hydrazide] | 50 to 100 | – |
| CCCC(=O)NNC(=O)c1ccc(Br)s1 [Compound 77, 5-Bromo-thiophene-2-carboxylic acid N′-butyryl-hydrazide] | 1 to 50 | – |
| O=C(CCCCCBr)NNC(=O)c1cccs1 [Compound 78, Thiophene-2-carboxylic acid N′-(6-bromo-hexanoyl)-hydrazide] | 1 to 50 | – |
| CCCCCCC(=O)NNC(=O)c1cccs1 [Compound 79, Thiophene-2-carboxylic acid N′-heptanoyl-hydrazide] | 1 to 50 | – |
| Cc1csc(C(=O)NNC(=O)CCCCCBr)c1Cl [Compound 80, 3-Chloro-4-methyl-thiophene-2-carboxylic acid N′-(6-bromo-hexanoyl)-hydrazide] | 1 to 50 | – |
| CCCCCCC(=O)NNC(=O)c1scc(C)c1Cl [Compound 81, 3-Chloro-4-methyl-thiophene-Z-carboxylic acid N′-heptanoyl-hydrazide] | 1 to 50 | – |
| Cc1ccc(C(=O)NNC(=O)CCCCCBr)s1 [Compound 82, 5-Methyl-thiophene-2-carboxylic acid N′-(6-bromohexanoyl)-hydrazide] | 1 to 50 | – |
| CCCCCCC(=O)NNC(=O)c1ccc(C)s1 [Compound 83, 5-Methyl-thiophene-2-carboxylic acid N′-heptanoyl-hydrazide] | 1 to 50 | – |
| CCCCCCC(=O)NNC(=O)c1ccc(Br)s1 [Compound 84, 5-Bromo-thiophene-2-carboxylic acid N′-heptanoyl-hydrazide] | 1 to 50 | – |
| CCCCCCCC(=O)NNC(=O)c1sccc1Br [Compound 85, 3-Bromo-thiophene-2carboxylic acid N′-octanoyl-hydrazide] | 1 to 50 | – |
| CCCCCCCCCCCC(=O)NNC(=O)c1cccs1 [Compound 86, Thiophene-2-carboxylic acid N′-dodecanoyl-hydrazide] | 1 to 50 | – |
| Cc1ccc(C(=O)NNC(=O)CCC2CCCC2)s1 [Compound 87, 5-Methyl-thiophene-2-carboxylic acid N′-(3-cyclopentyl-propionyl)-hydrazide] | 1 to 50 | – |
| COC(=O)CCCC(=O)NNC(=O)c1ccc(C)s1 [Compound 88] | > 100 | – |
| CCCCCCC(=O)NNC(=O)c1ccco1 [Compound 89, Furan-2-carboxylic acid N′-heptanoyl-hydrazide] | 1 to 50 | – |
| O=C(CCC1CCCC1)NNC(=O)c1ccco1 [Compound 90, Furan-2-carboxylic acid N′-(3-cyclopentyl-propionyl)-hydrazide] | 1 to 50 | – |
| CCCCCCCC(=O)NNC(=O)c1c(C)noc1C [Compound 91, 3,5-Dimethyl-isoxazole-4carboxylic acid N′-octanoyl-hydrazide] | 1 to 50 | – |
| CCCCCCCC(=O)NNC(=O)c1c(Br)c(C)nn1CC [Compound 92, 4-Bromo-2-ethyl-5-methyl-2H-pyrazole-3-carboxylic acid N′-octanoyl-hydrazide] | 50 to 100 | – |
| CCCCCCCC(=O)NNC(=O)c1ccnc(Cl)c1 [Compound 93, 2-Chloro-isonicotinic acid N′-octanoyl-hydrazide] | 1 to 50 | – |

— US20090076012A1, “Modulation of pathogenicity” (priority 2002, published 2009)
